Assay results published in ChEMBL document CHEMBL5370608, “Selective and Bioavailable HDAC6 2-(Difluoromethyl)-1,3,4-oxadiazole Substrate Inhibitors and Modeling of Their Bioactivation Mechanism” (J Med Chem, 2023).
Values after ≈ are worked out from the molar mass of the structure shown.

Key:
[1] = biological target: T1, Protein deacetylase HDAC6 (Homo sapiens, UniProt Q9UBN7); test: Inhibition of full length TEV-cleavable N-terminal His6-tagged human recombinant HDAC6 using Ac-RGK (Ac)-AMC as substrate preincubated for 20 hrs followed by substrate addition and measured after 3 hrs by microplate reader analysis
T1 sequence (Q9UBN7 whole entry): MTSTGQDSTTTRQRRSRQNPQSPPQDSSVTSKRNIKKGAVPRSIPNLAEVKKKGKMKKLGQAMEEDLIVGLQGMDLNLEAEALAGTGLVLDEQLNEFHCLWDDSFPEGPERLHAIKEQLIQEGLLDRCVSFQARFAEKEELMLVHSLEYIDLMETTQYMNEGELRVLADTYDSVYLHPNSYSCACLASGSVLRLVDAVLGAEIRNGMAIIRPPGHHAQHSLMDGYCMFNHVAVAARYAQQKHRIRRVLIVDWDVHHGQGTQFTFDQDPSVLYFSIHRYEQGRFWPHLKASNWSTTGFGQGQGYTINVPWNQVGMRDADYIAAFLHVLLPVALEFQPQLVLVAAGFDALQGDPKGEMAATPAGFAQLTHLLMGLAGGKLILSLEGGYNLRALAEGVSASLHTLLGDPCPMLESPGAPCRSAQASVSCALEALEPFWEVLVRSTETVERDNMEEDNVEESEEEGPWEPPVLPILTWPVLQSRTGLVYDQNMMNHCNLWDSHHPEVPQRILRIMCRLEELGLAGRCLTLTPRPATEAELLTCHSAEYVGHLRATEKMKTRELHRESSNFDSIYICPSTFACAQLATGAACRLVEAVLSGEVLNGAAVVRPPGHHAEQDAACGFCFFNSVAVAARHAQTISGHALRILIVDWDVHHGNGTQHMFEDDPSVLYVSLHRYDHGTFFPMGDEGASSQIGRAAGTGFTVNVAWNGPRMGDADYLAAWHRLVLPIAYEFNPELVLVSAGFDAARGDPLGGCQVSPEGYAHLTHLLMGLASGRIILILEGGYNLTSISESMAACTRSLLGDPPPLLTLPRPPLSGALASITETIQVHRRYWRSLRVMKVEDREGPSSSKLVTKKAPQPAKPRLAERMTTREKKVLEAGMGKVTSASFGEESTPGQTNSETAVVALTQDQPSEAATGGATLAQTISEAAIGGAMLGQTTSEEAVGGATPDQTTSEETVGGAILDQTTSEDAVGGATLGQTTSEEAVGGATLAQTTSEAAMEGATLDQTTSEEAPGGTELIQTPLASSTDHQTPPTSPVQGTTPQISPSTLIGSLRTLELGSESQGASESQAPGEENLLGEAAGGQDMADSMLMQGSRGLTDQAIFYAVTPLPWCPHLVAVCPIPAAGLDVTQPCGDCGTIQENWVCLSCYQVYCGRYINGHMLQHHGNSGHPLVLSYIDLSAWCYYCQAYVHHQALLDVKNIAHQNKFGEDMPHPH

[2] = Aqueous solubility of the compound at pH 7.4; assay type: physicochemical
[3] = biological target: T1, Protein deacetylase HDAC6; test: Inhibition of HDAC6 in human BEAS-2B cells assessed as deacetylation of acetylated alpha-tubulin level incubated for 24 hrs by Western blot analysis; assay type: cell-based
[4] = biological target: T1, Protein deacetylase HDAC6; test: Inhibition of HDAC6 in human BEAS-2B cells assessed as deacetylation of acetylated histone-3 level incubated for 24 hrs by Western blot analysis; assay type: cell-based
[5] = Metabolic stability in human liver microsomes assessed as disappearance of parent compound; assay type: ADME, Microsome; settings: read-out: CLH
Histone deacetylase 1 = Histone deacetylase 1 (Homo sapiens, UniProt Q13547); test: Inhibition of human recombinant HDAC1 incubated for 15 mins by fluorimetry analysis
Sequence of Histone deacetylase 1 (Q13547 whole entry): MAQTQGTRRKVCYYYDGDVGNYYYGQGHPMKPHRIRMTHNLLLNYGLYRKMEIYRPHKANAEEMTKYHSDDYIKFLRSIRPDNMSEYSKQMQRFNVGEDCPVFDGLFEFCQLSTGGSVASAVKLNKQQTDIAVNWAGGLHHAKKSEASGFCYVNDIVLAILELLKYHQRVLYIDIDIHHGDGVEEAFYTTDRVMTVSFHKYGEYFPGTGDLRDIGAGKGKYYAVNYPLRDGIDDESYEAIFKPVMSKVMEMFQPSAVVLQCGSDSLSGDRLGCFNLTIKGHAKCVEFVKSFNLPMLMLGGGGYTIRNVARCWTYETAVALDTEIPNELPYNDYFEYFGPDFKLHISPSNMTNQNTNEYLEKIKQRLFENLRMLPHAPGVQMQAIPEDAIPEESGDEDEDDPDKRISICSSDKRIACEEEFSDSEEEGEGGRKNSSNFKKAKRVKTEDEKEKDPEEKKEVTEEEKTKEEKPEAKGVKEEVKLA

Histone deacetylase 2 = Histone deacetylase 2 (Homo sapiens, UniProt Q92769); test: Inhibition of human recombinant HDAC2 incubated for 15 mins by fluorimetry analysis
Sequence of Histone deacetylase 2 (Q92769 whole entry): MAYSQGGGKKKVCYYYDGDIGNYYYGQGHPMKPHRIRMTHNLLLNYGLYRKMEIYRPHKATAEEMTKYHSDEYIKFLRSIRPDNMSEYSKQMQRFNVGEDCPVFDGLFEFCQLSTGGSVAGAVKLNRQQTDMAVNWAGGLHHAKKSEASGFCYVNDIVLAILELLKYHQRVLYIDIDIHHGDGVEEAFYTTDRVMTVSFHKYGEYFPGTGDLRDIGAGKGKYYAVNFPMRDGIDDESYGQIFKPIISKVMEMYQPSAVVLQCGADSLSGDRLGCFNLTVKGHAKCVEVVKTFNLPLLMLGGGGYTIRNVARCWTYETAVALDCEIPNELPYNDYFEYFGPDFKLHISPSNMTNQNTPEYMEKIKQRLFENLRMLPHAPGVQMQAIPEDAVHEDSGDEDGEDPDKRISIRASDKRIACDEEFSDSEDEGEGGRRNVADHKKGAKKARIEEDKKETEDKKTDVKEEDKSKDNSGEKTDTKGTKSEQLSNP

Histone deacetylase 3 = Histone deacetylase 3 (Homo sapiens, UniProt O15379); test: Inhibition of human recombinant HDAC3 incubated for 10 mins by Spectrophotometric analysis
Sequence of Histone deacetylase 3 (O15379 whole entry): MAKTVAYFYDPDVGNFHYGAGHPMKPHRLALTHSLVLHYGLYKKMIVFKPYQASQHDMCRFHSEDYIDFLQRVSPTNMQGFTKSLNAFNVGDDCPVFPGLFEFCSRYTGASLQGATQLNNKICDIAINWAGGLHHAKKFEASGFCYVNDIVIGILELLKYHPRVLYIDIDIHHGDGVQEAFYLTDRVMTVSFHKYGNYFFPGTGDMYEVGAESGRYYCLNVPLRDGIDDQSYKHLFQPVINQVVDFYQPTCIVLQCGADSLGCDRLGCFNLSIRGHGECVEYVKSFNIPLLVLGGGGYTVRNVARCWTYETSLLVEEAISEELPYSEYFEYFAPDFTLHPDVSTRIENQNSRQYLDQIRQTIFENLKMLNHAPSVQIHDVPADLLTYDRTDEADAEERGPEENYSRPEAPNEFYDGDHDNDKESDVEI

Histone deacetylase 4 = Histone deacetylase 4 (Homo sapiens, UniProt P56524); test: Inhibition of human recombinant HDAC4 incubated for 30 mins by fluorimetry analysis
Sequence of Histone deacetylase 4 (P56524 whole entry): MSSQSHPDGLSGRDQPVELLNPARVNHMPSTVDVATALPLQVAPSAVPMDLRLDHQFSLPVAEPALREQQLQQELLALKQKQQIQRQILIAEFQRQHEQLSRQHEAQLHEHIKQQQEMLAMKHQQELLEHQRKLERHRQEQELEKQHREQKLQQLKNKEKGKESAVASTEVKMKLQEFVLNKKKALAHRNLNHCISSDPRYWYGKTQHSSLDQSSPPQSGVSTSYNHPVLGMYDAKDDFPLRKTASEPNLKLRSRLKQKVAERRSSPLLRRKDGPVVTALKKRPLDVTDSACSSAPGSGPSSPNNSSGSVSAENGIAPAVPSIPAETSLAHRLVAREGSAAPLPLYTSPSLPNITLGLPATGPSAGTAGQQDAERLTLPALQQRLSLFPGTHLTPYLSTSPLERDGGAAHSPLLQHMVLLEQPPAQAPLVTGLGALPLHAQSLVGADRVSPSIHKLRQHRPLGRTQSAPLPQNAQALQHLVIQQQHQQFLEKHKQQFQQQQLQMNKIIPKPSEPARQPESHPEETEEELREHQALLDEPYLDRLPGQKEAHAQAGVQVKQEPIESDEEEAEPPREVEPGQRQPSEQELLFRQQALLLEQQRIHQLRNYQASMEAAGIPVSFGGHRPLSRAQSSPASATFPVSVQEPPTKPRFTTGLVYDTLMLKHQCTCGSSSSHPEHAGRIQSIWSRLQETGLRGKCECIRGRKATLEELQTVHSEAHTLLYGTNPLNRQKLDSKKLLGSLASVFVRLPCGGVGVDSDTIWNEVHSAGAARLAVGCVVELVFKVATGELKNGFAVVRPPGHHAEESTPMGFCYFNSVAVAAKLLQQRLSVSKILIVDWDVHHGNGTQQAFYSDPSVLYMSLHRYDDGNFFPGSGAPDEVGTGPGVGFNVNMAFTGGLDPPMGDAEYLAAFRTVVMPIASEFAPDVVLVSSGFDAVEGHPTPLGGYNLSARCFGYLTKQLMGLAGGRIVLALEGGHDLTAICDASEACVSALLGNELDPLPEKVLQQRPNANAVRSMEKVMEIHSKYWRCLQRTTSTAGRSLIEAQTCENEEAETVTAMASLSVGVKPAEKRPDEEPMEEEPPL

Histone deacetylase 5 = Histone deacetylase 5 (Homo sapiens, UniProt Q9UQL6); test: Inhibition of human recombinant HDAC5 incubated for 30 mins by fluorimetry analysis
Sequence of Histone deacetylase 5 (Q9UQL6 whole entry): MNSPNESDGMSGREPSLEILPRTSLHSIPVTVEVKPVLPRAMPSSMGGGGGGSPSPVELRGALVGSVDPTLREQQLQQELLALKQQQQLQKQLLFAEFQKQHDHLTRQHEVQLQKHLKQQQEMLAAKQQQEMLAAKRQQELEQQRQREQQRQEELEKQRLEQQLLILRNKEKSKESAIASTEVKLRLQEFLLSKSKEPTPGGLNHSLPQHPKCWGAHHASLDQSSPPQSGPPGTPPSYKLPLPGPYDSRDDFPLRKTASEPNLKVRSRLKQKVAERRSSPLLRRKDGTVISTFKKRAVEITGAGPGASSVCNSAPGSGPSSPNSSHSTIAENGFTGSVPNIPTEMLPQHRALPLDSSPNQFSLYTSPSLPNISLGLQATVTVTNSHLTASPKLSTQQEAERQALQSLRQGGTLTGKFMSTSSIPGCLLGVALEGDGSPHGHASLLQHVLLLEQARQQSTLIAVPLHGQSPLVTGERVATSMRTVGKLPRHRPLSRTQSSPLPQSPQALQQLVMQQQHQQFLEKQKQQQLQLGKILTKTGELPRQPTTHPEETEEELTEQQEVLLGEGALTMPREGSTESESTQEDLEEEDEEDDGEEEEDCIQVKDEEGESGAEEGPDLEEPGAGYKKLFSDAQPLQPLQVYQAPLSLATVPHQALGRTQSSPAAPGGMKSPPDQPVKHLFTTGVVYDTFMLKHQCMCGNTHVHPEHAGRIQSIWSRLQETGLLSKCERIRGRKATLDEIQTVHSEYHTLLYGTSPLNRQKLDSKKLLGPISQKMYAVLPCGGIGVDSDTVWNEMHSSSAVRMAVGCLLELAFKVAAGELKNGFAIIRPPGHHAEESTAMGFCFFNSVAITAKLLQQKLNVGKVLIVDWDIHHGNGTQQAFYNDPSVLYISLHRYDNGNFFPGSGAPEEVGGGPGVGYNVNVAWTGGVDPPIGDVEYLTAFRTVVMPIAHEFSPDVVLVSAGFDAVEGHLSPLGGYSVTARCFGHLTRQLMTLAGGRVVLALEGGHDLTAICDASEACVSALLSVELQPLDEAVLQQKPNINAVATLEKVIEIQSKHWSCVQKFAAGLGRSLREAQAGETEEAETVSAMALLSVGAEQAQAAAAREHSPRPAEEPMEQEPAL

[6] = biological target: T1, Protein deacetylase HDAC6; test: Inhibition of human recombinant HDAC6 incubated for 30 mins by fluorimetry analysis
Histone deacetylase 11 = biological target: T2, Histone deacetylase 11 (Homo sapiens, UniProt Q96DB2); test: Inhibition of human recombinant HDAC11 incubated for 30 mins by fluorimetry analysis
T2 sequence (Q96DB2 whole entry): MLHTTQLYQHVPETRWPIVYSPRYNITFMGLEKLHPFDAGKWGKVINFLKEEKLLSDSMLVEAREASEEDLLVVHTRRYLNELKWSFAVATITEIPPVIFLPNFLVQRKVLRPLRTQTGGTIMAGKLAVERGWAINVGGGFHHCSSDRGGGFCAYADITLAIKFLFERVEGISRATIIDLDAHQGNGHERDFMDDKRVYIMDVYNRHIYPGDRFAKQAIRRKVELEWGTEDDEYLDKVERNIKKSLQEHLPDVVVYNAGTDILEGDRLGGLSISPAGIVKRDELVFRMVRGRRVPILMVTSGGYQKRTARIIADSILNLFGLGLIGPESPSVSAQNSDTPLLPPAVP

[7] = Chemical stability of compound in sodium phosphate buffer at pH 7.4 assessed as half life by UPLC analysis; assay type: physicochemical
[8] = biological target: T1, Protein deacetylase HDAC6; test: Stability of the compound assessed as full-length human HDAC6 mediated-drug degradation measured after 96 hrs by time-resolved mass spectrometry analysis; assay type: ADME
[9] = Metabolic stability in mouse hepatocytes assessed as intrinsic clearance at 1 uM measured per 10^6 cells incubated at 2 to 60 mins by LC-MS/MS analysis; assay type: ADME, cell-based, Hepatocyte; settings: time 2-60 min, read-out: CLH
[10] = Metabolic stability in rat hepatocytes assessed as intrinsic clearance at 1 uM measured per 10^6 cells incubated at 2 to 60 mins by LC-MS/MS analysis; assay type: ADME, cell-based, Hepatocyte; settings: time 2-60 min, read-out: CLH
[11] = Plasma protein binding in human assessed as unbound fraction; assay type: ADME, cell-free
[12] = Clearance in Wistar Han rat at 0.5 mg/kg, iv measured upto 24 hrs by LC-MS/MS analysis; assay type: ADME, organism-based; settings: in vivo
[13] = Half life in Wistar Han rat at 0.5 mg/kg, iv measured upto 24 hrs by LC-MS/MS analysis; assay type: ADME, organism-based; settings: in vivo

Compound	IC50 [1]	solubility [2]	EC50 [3]	IC50 [4]	microsomal CLint [5]	IC50 (Histone deacetylase 1)	IC50 (Histone deacetylase 2)	IC50 (Histone deacetylase 3)	IC50 (Histone deacetylase 4)	IC50 (Histone deacetylase 5)	IC50 [6]	IC50 (Histone deacetylase 11)	half-life [7]	Stability [8]	hepatocyte CLint at 1 µM [9]	hepatocyte CLint at 1 µM [10]	fraction unbound [11]	clearance [12]	half-life [13]
CS(=O)(=O)NCC(Nc1ncc(-c2nnc(C(F)F)o2)cn1)c1ccc(OC(F)(F)F)cc1 (stereo not drawn)	0.00158 µM	110 µM (≈ 54.4 µg/mL)	0.0631 µM	> 10 µM	< 3 µL/min/mg	> 100 µM	> 100 µM	> 100 µM	14 µM	> 100 µM	0.58 µM	> 100 µM	221 h	Unstable	–	–	–	–	–
FC(F)c1nnc(-c2ccc(Cn3nnc(-c4ccccn4)n3)nc2)o1	0.001 µM	410 µM (≈ 146 µg/mL)	0.251 µM	> 10 µM	< 3 µL/min/mg	> 100 µM	> 100 µM	> 100 µM	> 100 µM	> 100 µM	0.19 µM	> 100 µM	84 h	Unstable	< 1 µL/min/1e6 cells	< 1 µL/min/1e6 cells	0.13	3.2 mL/min/kg	7.3 h
O=C(NO)c1cnc(NC2(c3ccccc3)CCC(F)(F)CC2)nc1	0.00398 µM	810 µM (≈ 282 µg/mL)	0.0794 µM	> 10 µM	< 3 µL/min/mg	17 µM	71 µM	87 µM	12 µM	3.7 µM	< 0.01 µM	13 µM	–	Stable	130 µL/min/1e6 cells	51 µL/min/1e6 cells	0.23	180 mL/min/kg	0.3 h
COc1ccccc1-c1nnn(Cc2ccc(-c3nnc(C(F)F)o3)cn2)n1	0.00158 µM	60 µM (≈ 23.1 µg/mL)	0.316 µM	> 10 µM	< 3 µL/min/mg	> 100 µM	> 100 µM	> 100 µM	> 100 µM	> 100 µM	0.17 µM	> 100 µM	–	–	–	–	–	–	–
